Values quoted from earlier work, collected in patent US20210128795A1, “SPIRAL COATED STENT WITH CONTROLLABLE GRADIENT DEGRADATION, PREPARATION METHOD THEREOF AND APPLICATION THEREOF” (Zhuhai Ruizhan Biomaterials Co., Ltd., priority 2018, published 2021).
Like-named read-outs stand apart in the source and are kept apart here.

Tested on: rats

SMILES	LD50 value (median lethal dose) (rats per os)	LD50 value (median lethal dose) (rat, in vivo)
OCCCO [1,3-propanediol]	16,080 mg/kg	
OCCCCO [1,4-butanediol]		1,525 mg/kg
